Source: PubChem BioAssay AID2060604 (Molecular Pharmacology Branch, DTP, NCI, 2025)

Test system: 379773-124-R-J2-PDC complex spheroids, viability % test/control
Test: Anticancer human tumor 379773-124-R-J2-PDC patient-derived endometrial carcinoma cell line growth inhibition [CLK]
Conditions: for IC50: curve of first compound; for viability, T/C: stronger effect = lower value
Method in brief: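 Patient-derived tumor cells grown as complex spheroids with HUVEC endothelial cells and mesenchymal stem cells, treated with drug combinations. Concentrations descend in half-log steps from near clinical Cmax, or from 10 microM if Cmax unknown.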

[1] = second compound 0.0316 µM, first compound 0.0316 µM
[2] = second compound 0.0316 µM, first compound 0.1 µM
[3] = second compound 0.0316 µM, first compound 0.316 µM
[4] = second compound 0.0316 µM, first compound 1 µM
[5] = second compound 0.0316 µM, first compound 3.16 µM
[6] = second compound 0.0316 µM, first compound 10 µM
[7] = second compound 0.1 µM, first compound 0.0316 µM
[8] = second compound 0.1 µM, first compound 0.1 µM
[9] = second compound 0.1 µM, first compound 0.316 µM
[10] = second compound 0.1 µM, first compound 1 µM
[11] = second compound 0.1 µM, first compound 3.16 µM
[12] = second compound 0.1 µM, first compound 10 µM
[13] = second compound 0.316 µM, first compound 0.0316 µM
[14] = second compound 0.316 µM, first compound 0.1 µM
[15] = second compound 0.316 µM, first compound 0.316 µM
[16] = second compound 0.316 µM, first compound 1 µM
[17] = second compound 0.316 µM, first compound 3.16 µM
[18] = second compound 0.316 µM, first compound 10 µM
[19] = second compound 1 µM, first compound 0.0316 µM
[20] = second compound 1 µM, first compound 0.1 µM
[21] = second compound 1 µM, first compound 0.316 µM
[22] = second compound 1 µM, first compound 1 µM
[23] = second compound 1 µM, first compound 3.16 µM
[24] = second compound 1 µM, first compound 10 µM
[25] = second compound 3.16 µM, first compound 0.0316 µM
[26] = second compound 3.16 µM, first compound 0.1 µM
[27] = second compound 3.16 µM, first compound 0.316 µM
[28] = second compound 3.16 µM, first compound 1 µM
[29] = second compound 3.16 µM, first compound 3.16 µM
[30] = second compound 3.16 µM, first compound 10 µM
[31] = second compound 10 µM, first compound 0.0316 µM
[32] = second compound 10 µM, first compound 0.1 µM
[33] = second compound 10 µM, first compound 0.316 µM
[34] = second compound 10 µM, first compound 1 µM
[35] = second compound 10 µM, first compound 3.16 µM
[36] = second compound 10 µM, first compound 10 µM
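Also: compound exposure lasted seven days before the viability readout.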
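For viability, T/C in this document: 100% = DMSO vehicle control wells.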

COc1ccc([C@@H](O)c2cc(-c3ncnc4cc(N5CCOCC5)ccc34)c(F)cc2Cl)nn1 + CN1CCN(c2cc(C(=O)Nc3cc4cc(-c5cnn(C)c5)ccc4cn3)ccn2)CC1
IC50 (second compound 0.0316 µM): 5320 nM | IC50 (second compound 0.1 µM): 2820 nM | IC50 (second compound 0.316 µM): < 31.6 nM | IC50 (second compound 1 µM): < 31.6 nM | IC50 (second compound 3.16 µM): < 31.6 nM | IC50 (second compound 10 µM): < 31.6 nM | viability, T/C [1]: 87.4% | viability, T/C [2]: 80.7% | viability, T/C [3]: 96.9% | viability, T/C [4]: 79.2% | viability, T/C [5]: 71.8% | viability, T/C [6]: 24.4% | viability, T/C [7]: 70.2% | viability, T/C [8]: 76.5% | viability, T/C [9]: 86.2% | viability, T/C [10]: 47% | viability, T/C [11]: 55% | viability, T/C [12]: 19.1% | viability, T/C [13]: 14.9% | viability, T/C [14]: 16.6% | viability, T/C [15]: 16.6% | viability, T/C [16]: 17.7% | viability, T/C [17]: 12.9% | viability, T/C [18]: 5.38% | viability, T/C [19]: 0.1% | viability, T/C [20]: 0.09% | viability, T/C [21]: 0.11% | viability, T/C [22]: 0.05% | viability, T/C [23]: 1.5% | viability, T/C [24]: 0.08% | viability, T/C [25]: 0.65% | viability, T/C [26]: 1.73% | viability, T/C [27]: 0.73% | viability, T/C [28]: 0.06% | viability, T/C [29]: 0.09% | viability, T/C [30]: 0.08% | viability, T/C [31]: 0.49% | viability, T/C [32]: 0.1% | viability, T/C [33]: 0.79% | viability, T/C [34]: 0.11% | viability, T/C [35]: 0.24% | viability, T/C [36]: 0.14%

COc1cccc2c1C(=O)c1c(O)c3c(c(O)c1C2=O)CC(O)(C(=O)CO)CC3OC1CC(N)C(O)C(C)O1 (centres undefined) + CN1CCN(c2cc(C(=O)Nc3cc4cc(-c5cnn(C)c5)ccc4cn3)ccn2)CC1
IC50 (second compound 0.0316 µM): < 31.6 nM | IC50 (second compound 0.1 µM): < 31.6 nM | IC50 (second compound 0.316 µM): < 31.6 nM | IC50 (second compound 1 µM): < 31.6 nM | IC50 (second compound 3.16 µM): < 31.6 nM | IC50 (second compound 10 µM): < 31.6 nM | viability, T/C [1]: 41% | viability, T/C [2]: 11.9% | viability, T/C [3]: 5.69% | viability, T/C [4]: 3.76% | viability, T/C [5]: 0.3% | viability, T/C [6]: 0.91% | viability, T/C [7]: 30.5% | viability, T/C [8]: 10.3% | viability, T/C [9]: 9.14% | viability, T/C [10]: 3.16% | viability, T/C [11]: 0.33% | viability, T/C [12]: 0.09% | viability, T/C [13]: 8.53% | viability, T/C [14]: 8.1% | viability, T/C [15]: 3.09% | viability, T/C [16]: 2.71% | viability, T/C [17]: 0.12% | viability, T/C [18]: 0.21% | viability, T/C [19]: 0.13% | viability, T/C [20]: 0.1% | viability, T/C [21]: 0.78% | viability, T/C [22]: 1.01% | viability, T/C [23]: 0.06% | viability, T/C [24]: 0.16% | viability, T/C [25]: 2.21% | viability, T/C [26]: 0.27% | viability, T/C [27]: 1.48% | viability, T/C [28]: 0.04% | viability, T/C [29]: 0.07% | viability, T/C [30]: 0.17% | viability, T/C [31]: 1.64% | viability, T/C [32]: 0.35% | viability, T/C [33]: 0.12% | viability, T/C [34]: 2.01% | viability, T/C [35]: 0.31% | viability, T/C [36]: 0.12%
